Test results published in ChEMBL document CHEMBL3621073, “Bile acid amphiphiles with tunable head groups as highly selective antitubercular agents” (Medchemcomm, 2014).
≈ marks a conversion by molar mass, not a printed value.

Tests used:
A549 [1] = assay: Cytotoxicity against human A549 cells assessed as effect on cell cycle phase at 100 uM by propidium iodide staining-based flow cytometry; settings: a549, 100 µM
[2] = Therapeutic index, ratio of MHC50 for chicken RBC to MIC99 for Mycobacterium tuberculosis H37Rv; settings: chicken red blood cells, read-out: TI
Escherichia coli = assay: Antibacterial activity against Escherichia coli MTCC 443 after 12 hrs by microplate reader assay; format: functional; settings: MTCC 443, 12 h
Staphylococcus aureus = assay: Antibacterial activity against Staphylococcus aureus MTCC 737 after 12 hrs by microplate reader assay; format: functional; settings: MTCC 737, 12 h
A549 [3] = assay: Cytotoxicity against human A549 cells after 48 hrs by MTT assay; format: cell-based; settings: A549, 48 h
[4] = test system: Mycolicibacterium smegmatis; assay: Antimycobacterial activity against Mycobacterium smegmatis str. MC2 155 after 2 days by inverted microscopic analysis; format: functional; settings: str. MC2 155, 48 h
[5] = test system: Mycobacterium tuberculosis; assay: Antimycobacterial activity against Mycobacterium tuberculosis H37Rv after 14 days by inverted microscopic analysis; format: functional; settings: 336 h
THP-1 = assay: Cytotoxicity against human THP1 cells after 48 hrs by MTT assay; format: cell-based; settings: THP-1, 48 h
[6] = Therapeutic index, ratio of MHC50 for sheep RBC to MIC99 for Mycobacterium tuberculosis H37Rv; settings: sheep red blood cells, read-out: TI

SMILES	Activity (A549 [1])	selectivity ratio [2]	MIC99 (Escherichia coli)	MIC99 (Staphylococcus aureus)	IC50 (A549 [3])	MIC99 [4]	MIC99 [5]	IC50 (THP-1)	selectivity ratio [6]
COC(=O)CC[C@@H](C)[C@H]1CC[C@H]2[C@@H]3[C@H](OC(=O)C[n+]4ccccc4)C[C@@H]4C[C@H](OC(=O)C[n+]5ccccc5)CC[C@]4(C)[C@H]3C[C@H](OC(=O)C[n+]3ccccc3)[C@]12C.[Cl-].[Cl-].[Cl-]	Non-toxic	> 26	> 512 µM	> 512 µM	> 200 µM	3.12 µM	37.5 µM	> 200 µM	> 26
COC(=O)CC[C@@H](C)[C@H]1CC[C@H]2[C@@H]3CC[C@@H]4C[C@H](OC(=O)C[N+]5(C)CCCCC5)CC[C@]4(C)[C@H]3C[C@H](OC(=O)C[N+]3(C)CCCCC3)[C@]12C		> 160	> 512 µM	128 µM	50 µM	0.78 µM	6.25 µM	77 µM	> 160
COC(=O)CC[C@@H](C)[C@H]1CC[C@H]2[C@@H]3CC[C@@H]4C[C@H](OC(=O)C[n+]5ccccc5)CC[C@]4(C)[C@H]3CC[C@]12C		< 20	> 512 µM	> 512 µM	68 µM	25 µM	> 50 µM	89 µM	< 20
COC(=O)CC[C@@H](C)[C@H]1CC[C@H]2[C@@H]3CC[C@@H]4C[C@H](OC(=O)CN)CC[C@]4(C)[C@H]3CC[C@]12C		< 20	> 512 µM	> 512 µM	24.6 µM	> 50 µM	> 50 µM	14 µM	< 20
C[C@H](CCC(=O)O)[C@H]1CC[C@H]2[C@@H]3[C@H](O)C[C@@H]4C[C@H](O)CC[C@]4(C)[C@H]3C[C@H](O)[C@]12C [CHOLIC ACID]	Non-toxic								
COC(=O)CC[C@@H](C)[C@H]1CC[C@H]2[C@@H]3[C@H](OC(=O)C[N+](C)(C)C)C[C@@H]4C[C@H](OC(=O)C[N+](C)(C)C)CC[C@]4(C)[C@H]3C[C@H](OC(=O)C[N+](C)(C)C)[C@]12C.[Cl-].[Cl-].[Cl-]	Non-toxic	> 20	> 512 µM	> 512 µM	> 200 µM	12.5 µM	50 µM	80 µM	> 20
COC(=O)CC[C@@H](C)[C@H]1CC[C@H]2[C@@H]3CC[C@@H]4C[C@H](OC(=O)C[n+]5ccccc5)CC[C@]4(C)[C@H]3C[C@H](OC(=O)C[n+]3ccccc3)[C@]12C		> 80	128 µM	> 512 µM	78 µM	1.56 µM	12.5 µM	124 µM	> 80
COC(=O)CC[C@@H](C)[C@H]1CC[C@H]2[C@@H]3[C@H](OC(=O)C[N+](C)(C)C)C[C@@H]4C[C@H](OC(=O)C[N+](C)(C)C)CC[C@]4(C)[C@H]3CC[C@]12C		> 80	256 µM	512 µM	144 µM	3.12 µM	12.5 µM	142 µM	> 80
COC(=O)CC[C@@H](C)[C@H]1CC[C@H]2[C@@H]3[C@H](OC(=O)C[n+]4ccc(N(C)C)cc4)C[C@@H]4C[C@H](OC(=O)C[n+]5ccc(N(C)C)cc5)CC[C@]4(C)[C@H]3CC[C@]12C		> 320	128 µM	128 µM	154 µM	0.78 µM	3.12 µM	137 µM	> 320
NNC(=O)c1ccncc1 [ISONIAZID]						> 50 µM	0.78 µM (≈ 0.107 µg/mL)		
COC(=O)CC[C@@H](C)[C@H]1CC[C@H]2[C@@H]3CC[C@@H]4C[C@H](OC(=O)CN)CC[C@]4(C)[C@H]3C[C@H](OC(=O)CN)[C@]12C		< 20	16 µM (≈ 8.33 µg/mL)	64 µM (≈ 33.3 µg/mL)	14.7 µM	> 50 µM	> 50 µM	14 µM	< 20
COC(=O)CC[C@@H](C)[C@H]1CC[C@H]2[C@@H]3CC[C@@H]4C[C@H](OC(=O)C[N+](C)(C)C)CC[C@]4(C)[C@H]3C[C@H](OC(=O)C[N+](C)(C)C)[C@]12C		< 20	256 µM	256 µM	157 µM	12.5 µM	> 50 µM	105 µM	< 20
COC(=O)CC[C@@H](C)[C@H]1CC[C@H]2[C@@H]3[C@H](OC(=O)CN)C[C@@H]4C[C@H](OC(=O)CN)CC[C@]4(C)[C@H]3CC[C@]12C		< 20	64 µM (≈ 33.3 µg/mL)	128 µM (≈ 66.7 µg/mL)	14.8 µM	> 50 µM	> 50 µM	13.7 µM	< 20
C[C@H]1COc2c(N3CCN(C)CC3)c(F)cc3c(=O)c(C(=O)O)cn1c23 [LEVOFLOXACIN]						0.58 µM (≈ 0.21 µg/mL)	0.78 µM (≈ 0.282 µg/mL)		
COC(=O)CC[C@@H](C)[C@H]1CC[C@H]2[C@@H]3[C@H](OC(=O)C[N+]4(C)CCCCC4)C[C@@H]4C[C@H](OC(=O)C[N+]5(C)CCCCC5)CC[C@]4(C)[C@H]3CC[C@]12C		> 80	128 µM	256 µM	79 µM	1.56 µM	12.5 µM	164 µM	> 80
COC(=O)CC[C@@H](C)[C@H]1CC[C@H]2[C@@H]3[C@H](OC(=O)C[n+]4ccccc4)C[C@@H]4C[C@H](OC(=O)C[n+]5ccccc5)CC[C@]4(C)[C@H]3CC[C@]12C		> 40	128 µM	256 µM	168 µM	3.12 µM	25 µM	> 200 µM	> 40
COC(=O)CC[C@@H](C)[C@H]1CC[C@H]2[C@@H]3CC[C@@H]4C[C@H](OC(=O)C[n+]5ccc(N(C)C)cc5)CC[C@]4(C)[C@H]3C[C@H](OC(=O)C[n+]3ccc(N(C)C)cc3)[C@]12C		> 213	64 µM	64 µM	50 µM	0.78 µM	4.68 µM	63 µM	> 213
COC(=O)CC[C@@H](C)[C@H]1CC[C@H]2[C@@H]3[C@H](OC(=O)C[N+]4(C)CCCCC4)C[C@@H]4C[C@H](OC(=O)C[N+]5(C)CCCCC5)CC[C@]4(C)[C@H]3C[C@H](OC(=O)C[N+]3(C)CCCCC3)[C@]12C.[Cl-].[Cl-].[Cl-]	Non-toxic	> 40	> 512 µM	512 µM	> 200 µM	6.25 µM	25 µM	> 200 µM	> 40
COC(=O)CC[C@@H](C)[C@H]1CC[C@H]2[C@@H]3CC[C@@H]4C[C@H](OC(=O)C[n+]5ccc(N(C)C)cc5)CC[C@]4(C)[C@H]3CC[C@]12C		> 20	> 512 µM	> 512 µM	112 µM	12.5 µM	50 µM	86 µM	> 20
COC(=O)CC[C@@H](C)[C@H]1CC[C@H]2[C@@H]3CC[C@@H]4C[C@H](OC(=O)C[N+]5(C)CCCCC5)CC[C@]4(C)[C@H]3CC[C@]12C		> 20	> 512 µM	> 512 µM	42 µM	6.25 µM	50 µM	77 µM	> 20
COC(=O)CC[C@@H](C)[C@H]1CC[C@H]2[C@@H]3CC[C@@H]4C[C@H](OC(=O)C[N+](C)(C)C)CC[C@]4(C)[C@H]3CC[C@]12C		> 20	> 512 µM	> 512 µM	69 µM	6.25 µM	50 µM	62 µM	> 20
